Where “and” joins values, the source holds several entries; their conditions need not be identical. Equal entries are not always repeated.
What was measured:
[1] = test system: adjuvant-induced arthritis; test: Adjuvant-induced arthritis model in Lewis rats (Table 7); conditions: p.o. 5 days, DiPIPs 100 mg/kg, Voltaren and indomethacin 6 mg/kg
Experimental: Four groups consisting of 6 male Lewis rats weighing 150-200 g were injected subcutaneously at the base of the tail with 0.1 ml of CFA. Drugs to be assayed were administered 5 days beginning on the day of the adjuvant injection. The paw volume of the right and left rear paw of each rat were measured on the day of adjuvant injection and at regular intervals for 30 days thereafter.
The emulsion was injected subcutaneously at the base of the tail and induced the arthritic state. Measurements of paw volume were made for 30 days to monitor paw swelling. Drug treatment began on Day 0.
Four groups consisting of 10 male Lewis rats weighing 150-200 g were injected subcutaneously at the base of the tail with 0.1 ml of CFA. Drugs to be assayed were administered for 5 days beginning on the day of the adjuvant injection.

[2] = test system: carrageenan-induced edema in rat paw; test: Inhibition of carrageenan-induced paw edema in rats
[3] = test system: phenylquinone (P.Q.) writhing; test: Analgesic activity, phenylquinone writhing; type: in vivo, mouse (ICR)
Experimental: The method of Siegmund et al [Proc. Soc. Exp. Biol. Med., Vol. 95, pages 729-731 (1957)] was used to measure the analgesic activity of PIP[4,4,4]. Groups of 10 male ICR mice weighing 22±2 g were employed. Various doses of test compound, dissolved in a vehicle of distilled water, were administered intraperitoneally. The control group received vehicle alone. […] The mean±SEM number of writhes in each treatment group was calculated and unpaired Student's t test was applied for comparison between vehicle and treated groups. Differences were considered significant when P<0.05.

[4] = test system: BALB/c responder splenocytes with CBA/J stimulator cells; test: Mixed lymphocyte response (MLR); type: cell-based, mouse (BALB/c
Experimental: This study examined the potential immunomodulatory activities of PIP[4,4,4] on mouse spleen cells using in vitro techniques. The effect of the compound on the ability of murine splenocytes to respond to the […] mitogen concanavalin A (Con A) and the B cell mitogen lipopolysaccharide (LPS) was studied. […] In addition, the compound was tested for its effect on the mixed lymphocyte response (MLR). The MLR is an in vitro manifestation of cell-mediated immunity in which T cells respond to differences in major histocompatibility complex (MHC) class II molecules (Ia antigens) expressed on foreign or allogeneic leukocytes (primarily B cells and […]/monocytes).
a. Preparation of cells--Under sterile conditions, spleens were removed from BALB/c (H-2^d) and CBA/J (H-2^k) mice. BALB/c splenocytes were used as responder cells in the mitogen assays and the MLR assays, whereas CBA/J cells were used as stimulator cells in the MLR assays. […] Cells were exposed to various concentrations of the test compounds for the entire culture period. The initial dilutions in medium were filter sterilized to maintain aseptic conditions.
c. […] Thus, a BALB/c (2×10^5 cells/well) anti-CBA/J (8×10^5 cells/well) MLR combination was used in these studies. CBA/J spleen cells were irradiated with 2,000 R to prevent them from responding to BALB/c MHC antigens. Triplicate wells were set up in 96-well flat-bottom microtiter plates for all treated cultures and positive controls (100% of control) were performed in replicates of nine wells. Plates were incubated at 37° C. in a humidified CO2 incubator for 5 days, pulsed with 1 μCI […]/well for 6-16 hours, harvested and counted in a liquid scintillation counter. All data were processed using Lotus 1-2-3 and SigmaPlot software.

[5] = test system: adjuvant-induced arthritis
[6] = 100 mg/kg p.o. daily for 5 consecutive days
[7] = Day 19, individual rat, p.o. × 5: PIP[4,4,4] 100, hydrocortisone 30, indomethacin 5 mg/kg

## C(CCNCC1CCNCC1)CNCC1CCNCC1 [PIP[4,4,4], N,N'-Bis(4-piperidinylmethyl)-1,4-butanediamine]
[1]; Day 28-0
  % FINAL INHIBITION: 58%
[1]
  FINAL DAY 28-0 (paw volume): .801
  INITIAL DAY 14-0 (paw volume): .496
[2]; 30 mg/kg intraperitoneally
  Acute anti-inflammatory activity (in words): significantly reducing the extent of carrageenan-induced paw edema
[2]; vs vehicle control, aspirin 150 mg/kg p.o., hydrocortisone 25 mg/kg p.o., PIP[4,4,4] 30 mg/kg i.p., >30% significant
  % Edema inhibition: 58%
[3]; 100 mg/kg i.p.
  % Inhibition (writhing): 79%
[3]; 100 mg/kg i.p., P.Q. 2 mg/kg i.p. 30 min post dosing, **P < 0.01
  # Writhes (X ± SEM): 3 ± 1 # WRITHES
[3]; i.p., compared with vehicle control
  Analgesic activity (in words): exhibited analgesic activity
[4]
  Effect on MLR (in words): MLR was inhibited by PIP[4,4,4] primarily at 10 and 100 μm
[4]; MLR, 5 days, drug 0.010 μm
  Proliferative response (CPM), Mean ± SD: 330859 ± 11640 CPM
[4]; MLR, 5 days, drug 0.100 μm
  Proliferative response (CPM), Mean ± SD: 411919 ± 6106 CPM
[4]; MLR, 5 days, drug 1.000 μm
  Proliferative response (CPM), Mean ± SD: 54594 ± 11873 CPM
[4]; MLR, 5 days, drug 10.000 μm
  Proliferative response (CPM), Mean ± SD: 568531 ± 6200 CPM
[4]; MLR, 5 days, drug 100.000 μm
  Proliferative response (CPM), Mean ± SD: 29717 ± 3146 CPM
[4]; MLR, 5 days, drug 1000.000 μm
  Proliferative response (CPM), Mean ± SD: 22583 ± 2490 CPM
[4]; Mus musculus, Splenocyte, 120 h, MLR, 5 days, drug 0.010 μm, read-out: % Control
  activity at 0.01 µM: 79%
[4]; Mus musculus, Splenocyte, 120 h, MLR, 5 days, drug 0.100 μm, read-out: % Control
  activity at 0.1 µM: 99%
[4]; Mus musculus, Splenocyte, 120 h, MLR, 5 days, drug 1.000 μm, read-out: % Control
  activity at 1 µM: 131%
[4]; Mus musculus, Splenocyte, 120 h, MLR, 5 days, drug 10.000 μm, read-out: % Control
  activity at 10 µM: 136%
[4]; Mus musculus, Splenocyte, 120 h, MLR, 5 days, drug 100.000 μm, read-out: % Control
  activity at 100 µM: 71%
[4]; Mus musculus, Splenocyte, 120 h, MLR, 5 days, drug 1000.000 μm, read-out: % Control
  activity at 1000 µM: 54%
[5]; [6]
  Acute and late phase swelling (in words): reduced both part of the acute phase and inhibited the development of the late phase swelling in the contralateral paw
  Signs of polyarthritis in the paws (in words): did not prevent the appearance of signs of polyarthritis in the paws
[5]; 5th day after 5 doses, p.o.: PIP[4,4,4] 100, hydrocortisone 30, indomethacin 5 mg/kg, >30% significant
  Inhibition % B (5-0): 26%
[5]; Day 1 - Day 0, average, p.o. × 5: PIP[4,4,4] 100, hydrocortisone 30, indomethacin 5 mg/kg
  Net swelling of paw volume A (1-0), average: 0.74 mL
[5]; Day 5 - Day 0, average, p.o. × 5: PIP[4,4,4] 100, hydrocortisone 30, indomethacin 5 mg/kg
  Net swelling of paw volume B (5-0), average: 1.22 mL
[5]; Day 5 - Day 0, individual rat, p.o. × 5: PIP[4,4,4] 100, hydrocortisone 30, indomethacin 5 mg/kg
  Net swelling of paw volume B (5-0): 1.17 mL and 1.49 mL and 1.04 mL and 1.37 mL and 1.03 mL
[5]; Day 5 - Day 1, average, p.o. × 5: PIP[4,4,4] 100, hydrocortisone 30, indomethacin 5 mg/kg
  Net swelling of paw volume C (5-1), average: 0.48 mL
[5]; Day 5 - Day 1, individual rat, p.o. × 5: PIP[4,4,4] 100, hydrocortisone 30, indomethacin 5 mg/kg
  Net swelling of paw volume C (5-1): 0.34 mL and 0.70 mL and 0.50 mL and 0.52 mL
[5]; [7]
  Polyarthritis E (ears): -
  Polyarthritis N (noses): -
  Polyarthritis P (paws): +
  Polyarthritis T (tails): -
[5]; average, p.o. × 5: PIP[4,4,4] 100, hydrocortisone 30, indomethacin 5 mg/kg
  B.W. Gain (18-0), average: 25 g
[5]; first day, after one dose, p.o.: PIP[4,4,4] 100, hydrocortisone 30, indomethacin 5 mg/kg, >30% significant
  Inhibition % A (1-0): 11%
[5]; individual rat, p.o. × 5: PIP[4,4,4] 100, hydrocortisone 30, indomethacin 5 mg/kg
  B.W. Gain (18-0): 20 g and 35 g and 5 g and 30 g
[5]; paw volume change Day 1 to Day 5, p.o. × 5: PIP[4,4,4] 100, hydrocortisone 30, indomethacin 5 mg/kg, >30% significant
  Inhibition % C (5-1): 41%

— patent US5843959A, “Methods and bicyclic polyamine compositions for the treatment of inflammation” (University of Florida Research Foundation, Inc., priority 1997, dated 1998)
